Columns and labels:
[1] = system: HT29 human colon cancer cells; test: Cell killing activity of camptothecins (CCK-8); type: cell-based; settings: HT29, killing 4 days
Experimental: (§1) KB oral epithelial cancer cells (purchased from: ATCC) were cultured in DMEM medium supplemented with 10% FBS; NCI-N87 human gastric cancer cells (purchased from: ATCC) were cultured in RPMI1640 medium supplemented with 10% FBS; HT29 human colon cancer cells (purchased from: ATCC) were cultured in RPMI1640 medium supplemented with 10% FBS; and BxPC-3 human pancreatic adenocarcinoma cells (purchased from: ATCC) were cultured in RPMI1640 medium supplemented with 10% FBS.
(§2) Using corresponding media described above and in cell plates, the density of KB cells was adjusted to 2×10^4/mL; the density of NCI-N87 cells was adjusted to 5×10^4/mL; the density of HT29 cells was adjusted to 5×10^4/mL, and the cells were plated onto 96-well transparent flat bottom plates, at 100 µL/well, and cultured overnight; and the density of BxPC-3 cells was adjusted to 5×10^4/mL.
(§3) Samples to be detected were diluted to 20 µM with corresponding media, then 5-fold gradient dilution was performed, and 9 concentrations were obtained. A well having cells but with no any sample added was set as the well showing maximum cell growth; and a well having no cells was set as the well of medium background. The diluted samples were added into the cell plates, at 100 µL/well, which were then incubated in a CO2 incubator for 96 hours. After the incubation, CCK-8 (purchased from: DOJINDO LABORATORIES) prepared beforehand was added into the plates, at 20 µL/well, and after further 3 hours of incubation in the CO2 incubator, OD values at 450 nm were read on a microplate reader.
(§4) Data obtained was fitted to a four-parameter curve using software Prism7, and equation for calculating maximum killing is: maximum killing (%) = 1 - (OD450 value of the well showing maximum killing - OD450 value of the well of medium background) / (OD450 value of the well showing maximum cell growth - OD450 value of the cell of medium background) × 100%. Table 6. Results of comparative study on the activity of camptothecins

[2] = system: KB oral epithelial cancer cells; test: Cell killing activity of camptothecins (CCK-8); type: cell-based; settings: killing 4 days
Experimental: as §1, §2, §3, §4

BxPC-3 = test: Proliferation-inhibiting effect on tumor cells (SRB / MTT); type: cell-based; settings: Homo sapiens; BxPC-3, 144 hours; read-out: IC50 (nM, mean ± SD)
Experimental: (§5) For cells growing by adherence, SRB assay was used to detect effect of antibody-drug conjugates, antibodies, or camptothecins on the proliferation of tumor cells in vitro cultured. A certain number of cells in exponential growth phase were inoculated in 96-well cell culture plates, and when the cells grew by adherence overnight, antibody drug conjugates, antibodies, or camptothecins of different concentrations were added into the cells. 144 hours of incubation later, the cells were fixed with trichloroacetic acid, and then stained with SRB (prepared in 1% glacial acetic acid at a concentration of 4 mg/mL). 10 mM Tris solution was added into each well to solubilize the bound SRB. OD values at 510 nm were read on a microplate reader. [formula]
(§6) For cells growing in suspension, MTT assay was used to detect effect of antibody-drug conjugates, antibodies, or camptothecins on the proliferation of tumor cells in vitro cultured. A certain number of cells in exponential growth phase were inoculated in 96-well cell culture plates, and when the cells grew in suspension overnight, antibody-drug conjugates, antibodies, or camptothecins of different concentrations were added into the cells. 144 hours of incubation later, MTT was added to each well of the plates, and the incubation was continued for 4 hours at 37 °C in a 5% CO2 saturated humidity incubator. Next, 100 µL of SDS-isobutanol-HCl solution was added into each well of the plates, and OD values at 570 nm and 690 nm were read on a microplate reader.
(§7) Half maximal inhibitory concentration (IC50) was calculated from the inhibition (%) at those different concentrations using the software Graphpad Prism 8.0. The experiment was repeated once and the data was expressed as mean ± SD, and a plot of log(concentration) versus inhibition was generated. Table 10. Results of the proliferation-inhibiting effect of ADCs targeting B7-H3 on different tumor cells

Calu-3 = test: as above; type: cell-based; settings: Homo sapiens; Calu-3, 144 hours; read-out: IC50 (nM, mean ± SD)
Experimental: as §5, §6, §7

Calu-6 = test: as above; type: cell-based; settings: Homo sapiens; Calu-6, 144 hours; read-out: IC50 (nM, mean ± SD)
Experimental: as §5, §6, §7

ES-2 = test: as above; type: cell-based; settings: Homo sapiens; ES-2, 144 hours; read-out: IC50 (nM, mean ± SD)
Experimental: as §5, §6, §7

HCT-116 = test: as above; type: cell-based; settings: Homo sapiens; HCT-116, 144 hours; read-out: IC50 (nM, mean ± SD)
Experimental: as §5, §6, §7

HT-29 = test: as above; type: cell-based; settings: Homo sapiens; HT-29, 144 hours; read-out: IC50 (nM, mean ± SD)
Experimental: as §5, §6, §7

MC38/B7H3 = test: as above; type: cell-based; settings: Mus musculus, MC-38; MC38/B7H3, 144 hours; read-out: IC50 (nM, mean ± SD)
Experimental: as §5, §6, §7

MC38 = test: as above; type: cell-based; settings: Mus musculus, MC-38; MC38, 144 hours; read-out: IC50 (nM, mean ± SD)
Experimental: as §5, §6, §7

MDA-MB-231 = test: as above; type: cell-based; settings: Homo sapiens; MDA-MB-231, 144 hours; read-out: IC50 (nM, mean ± SD)
Experimental: as §5, §6, §7

MDA-MB-468 = test: as above; type: cell-based; settings: Homo sapiens; MDA-MB-468, 144 hours; read-out: IC50 (nM, mean ± SD)
Experimental: as §5, §6, §7

NCI-N87 = test: as above; type: cell-based; settings: Homo sapiens; NCI-N87, 144 hours; read-out: IC50 (nM, mean ± SD)
Experimental: as §5, §6, §7

PANC 05.04 = test: as above; type: cell-based; settings: Homo sapiens; PANC 05.04, 144 hours; read-out: IC50 (nM, mean ± SD)
Experimental: as §5, §6, §7

PANC-1 = test: as above; type: cell-based; settings: Homo sapiens; PANC-1, 144 hours; read-out: IC50 (nM, mean ± SD)
Experimental: as §5, §6, §7

SK-OV-3 = test: as above; type: cell-based; settings: Homo sapiens; SK-OV-3, 144 hours; read-out: IC50 (nM, mean ± SD)
Experimental: as §5, §6, §7

SW626 = test: as above; type: cell-based; settings: Homo sapiens; SW626, 144 hours; read-out: IC50 (nM, mean ± SD)
Experimental: as §5, §6, §7

U-87 MG = test: as above; type: cell-based; settings: Homo sapiens, 144 hours, read-out: IC50 (nM, mean ± SD)
Experimental: as §5, §6, §7

[3] = target: T1, human B7-H3 naturally expressed on the surface of SKOV3 cells (human) (UniProt Q5ZPR3); test: flow cytometry (MFI) on SKOV3 cells naturally expressing human B7-H3
T1 sequence (looked up): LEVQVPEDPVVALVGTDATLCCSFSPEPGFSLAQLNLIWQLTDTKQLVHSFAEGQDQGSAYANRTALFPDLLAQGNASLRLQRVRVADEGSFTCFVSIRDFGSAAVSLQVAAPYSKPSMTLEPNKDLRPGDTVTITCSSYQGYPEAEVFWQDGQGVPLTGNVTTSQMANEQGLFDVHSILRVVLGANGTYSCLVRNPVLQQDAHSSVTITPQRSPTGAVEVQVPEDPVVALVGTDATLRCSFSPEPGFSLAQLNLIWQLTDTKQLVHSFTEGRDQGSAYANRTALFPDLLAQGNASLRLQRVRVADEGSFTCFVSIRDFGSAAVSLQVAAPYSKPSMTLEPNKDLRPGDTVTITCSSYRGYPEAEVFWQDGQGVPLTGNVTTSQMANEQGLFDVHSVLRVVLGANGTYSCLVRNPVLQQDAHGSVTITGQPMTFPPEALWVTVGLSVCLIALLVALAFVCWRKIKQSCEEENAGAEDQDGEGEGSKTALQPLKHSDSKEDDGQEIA

[4] = target: T2, Recombinant human B7-H3 extracellular domain protein (UniProtKB-Q5ZPR3, amino acids 1-461, C-His tag) (human) (UniProt Q5ZPR3); test: BLI (ForteBio Octet QKe), antibody on AHC probes, 60 nM antigen, 1:1 Langmuir fit
T2 sequence (looked up): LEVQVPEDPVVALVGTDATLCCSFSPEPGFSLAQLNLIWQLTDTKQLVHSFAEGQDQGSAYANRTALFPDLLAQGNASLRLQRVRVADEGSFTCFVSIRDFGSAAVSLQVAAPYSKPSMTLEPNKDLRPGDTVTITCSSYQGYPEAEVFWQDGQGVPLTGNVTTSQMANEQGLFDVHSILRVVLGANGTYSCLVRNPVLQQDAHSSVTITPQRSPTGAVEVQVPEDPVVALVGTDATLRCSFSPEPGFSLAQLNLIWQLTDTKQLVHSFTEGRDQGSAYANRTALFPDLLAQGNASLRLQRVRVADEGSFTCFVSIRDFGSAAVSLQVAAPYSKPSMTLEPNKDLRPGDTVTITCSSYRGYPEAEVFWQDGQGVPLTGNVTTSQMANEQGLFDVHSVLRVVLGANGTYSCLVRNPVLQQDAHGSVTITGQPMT

[5] = Phase I, advanced solid tumors, reported 2021; cited from earlier work

## CC[C@@]1(O)C(=O)OCc2c1cc1n(c2=O)Cc2c-1nc1ccc(N)c3c1c2C(F)(F)CC3 [Compound 3]
[1]
  Maximum Killing (%): 90.6%
[1]; Homo sapiens, HT-29, 96 h
  EC50: 6.04 nM
[2]; 96 h
  EC50: 7.47 nM
[2]
  Maximum Killing (%): 95.6%
BxPC-3
  IC50: 0.26 ± 0.09 nM
Calu-3
  IC50: 0.44 ± 0.1 nM
Calu-6
  IC50: 0.25 ± 0.06 nM
ES-2
  IC50: 0.21 ± 0.08 nM
HCT-116
  IC50: 0.3 nM
HT-29
  IC50: 0.62 nM
MC38/B7H3
  IC50: 4.67 ± 1.98 nM
MC38
  IC50: 3.27 ± 0.75 nM
MDA-MB-231
  IC50: 0.59 ± 0.03 nM
MDA-MB-468
  IC50: 0.21 ± 0.11 nM
NCI-N87
  IC50: 1.26 ± 0.13 nM
PANC 05.04
  IC50: 0.35 ± 0.19 nM
PANC-1
  IC50: 0.82 ± 0.16 nM
SK-OV-3
  IC50: 1.05 ± 0.48 nM
SW626
  IC50: 3.08 ± 0.63 nM
U-87 MG
  IC50: 3.72 ± 0.01 nM

B1: Control antibody hum30 (antibody, from another filing, V domains shown)
VH: QVQLVQSGAEVKKPGSSVKVSCKASGYTFTNYVMHWVRQAPGQGLEWMGYINPYNDDVKYNEKFKGRVTITADESTSTAYMELSSLRSEDTAVYYCARWGYYGSPLYYFDYWGQGTLVTVSS
VL: EIVLTQSPATLSLSPGERATLSCRASSRLIYMHWYQQKPGQAPRPLIYATSNLASGIPARFSGSGSGTDFTLTISSLEPEDFAVYYCQQWNSNPPTFGQGTKVEIK
[3]
  EC50: 1.22 nM
[4]
  Kd: 0.344 nM
  koff: 0.000324 s⁻¹
  kon: 941000 M⁻¹ s⁻¹

B2: MGC018: MacroGenics ADC: anti-B7-H3 humanized IgG1 monoclonal antibody conjugated to Duocarmycin (DUBA) via a cleavable linker, average DAR 2.7 (conjugate, chains of the INN, looked up)
VH: EVQLVESGGGLVKPGGSLRLSCAASGFTFSSYGMSWVRQAPGKGLEWVATINSGGSNTYYPDSLKGRFTISRDNAKNSLYLQMNSLRAEDTAVYYCARHDGGAMDYWGQGTTVTVSS
VL: DIQMTQSPSSLSASVGDRVTITCRASESIYSYLAWYQQKPGKAPKLLVYNTKTLPEGVPSRFSGSGSGTDFTLTISSLQPEDFATYYCQHHYGTPPWTFGQGTRLEIK
modifications: duocarmycin (DUBA) payload, cleavable linker, DAR 2.7
[5]
  Grade 3 and higher treatment-related adverse events (TRAEs): 50%
  patients with Grade 3 and higher treatment-related adverse events (TRAEs): 43 patients
  severe TRAE neutropenia: 22.1%
  severe TRAE thrombocytopenia: 7%
